PubChem BioAssay AID2060899 (Molecular Pharmacology Branch, DTP, NCI, 2025)

Test system: 565726-208-R1-J5-PDC complex spheroids, growth inhibition
Assay: Anticancer human tumor 565726-208-R1-J5-PDC patient-derived pancreatic adenocarcinoma cell line growth inhibition [RAS]
Settings: for IC50: curve of first compound; for viability, T/C: stronger effect = lower value
Outline: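 Agents were tested in combination matrices in half-log decrements from a top concentration at or near clinical Cmax (10 microM if undetermined). Targets were multi-cell spheroids of tumour lines plus HUVEC and MSC stromal cells.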

[1] = second compound 0.000949 µM, first compound 0.00316 µM
[2] = second compound 0.000949 µM, first compound 0.01 µM
[3] = second compound 0.000949 µM, first compound 0.0316 µM
[4] = second compound 0.000949 µM, first compound 0.1 µM
[5] = second compound 0.000949 µM, first compound 0.316 µM
[6] = second compound 0.000949 µM, first compound 1 µM
[7] = second compound 0.003 µM, first compound 0.00316 µM
[8] = second compound 0.003 µM, first compound 0.01 µM
[9] = second compound 0.003 µM, first compound 0.0316 µM
[10] = second compound 0.003 µM, first compound 0.1 µM
[11] = second compound 0.003 µM, first compound 0.316 µM
[12] = second compound 0.003 µM, first compound 1 µM
[13] = second compound 0.00949 µM, first compound 0.00316 µM
[14] = second compound 0.00949 µM, first compound 0.01 µM
[15] = second compound 0.00949 µM, first compound 0.0316 µM
[16] = second compound 0.00949 µM, first compound 0.1 µM
[17] = second compound 0.00949 µM, first compound 0.316 µM
[18] = second compound 0.00949 µM, first compound 1 µM
[19] = second compound 0.03 µM, first compound 0.00316 µM
[20] = second compound 0.03 µM, first compound 0.01 µM
[21] = second compound 0.03 µM, first compound 0.0316 µM
[22] = second compound 0.03 µM, first compound 0.1 µM
[23] = second compound 0.03 µM, first compound 0.316 µM
[24] = second compound 0.03 µM, first compound 1 µM
[25] = second compound 0.0949 µM, first compound 0.00316 µM
[26] = second compound 0.0949 µM, first compound 0.01 µM
[27] = second compound 0.0949 µM, first compound 0.0316 µM
[28] = second compound 0.0949 µM, first compound 0.1 µM
[29] = second compound 0.0949 µM, first compound 0.316 µM
[30] = second compound 0.0949 µM, first compound 1 µM
[31] = second compound 0.3 µM, first compound 0.00316 µM
[32] = second compound 0.3 µM, first compound 0.01 µM
[33] = second compound 0.3 µM, first compound 0.0316 µM
[34] = second compound 0.3 µM, first compound 0.1 µM
[35] = second compound 0.3 µM, first compound 0.316 µM
[36] = second compound 0.3 µM, first compound 1 µM
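Also: spheroids exposed to compounds for seven days before readout.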
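For viability, T/C in this document: 100% = DMSO vehicle control viability.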

C=CC(=O)N1CCN(c2nc(OCC3CCCN3C)nc3c(F)c(-c4nc(N)cc(C)c4C(F)(F)F)c(Cl)cc23)C(C)C1 (stereo unspecified) + CCn1c(-c2cc(N3CCN(C)CC3)cnc2C(C)OC)c2c3cc(ccc31)-c1csc(n1)CC(NC(=O)C1CC1C)C(=O)N1CCCC(N1)C(=O)OCC(C)(C)C2 was tested, and the IC50 (second compound 0.000949 µM) was > 1000 nM, the IC50 (second compound 0.003 µM) was 6.29 nM and the IC50 (second compound 0.00949 µM) was < 3.16 nM. For the same molecule, the IC50 (second compound 0.03 µM) was < 3.16 nM, the IC50 (second compound 0.0949 µM) was < 3.16 nM and the IC50 (second compound 0.3 µM) was < 3.16 nM. It also gave a viability, T/C [1] of 63.5%, a viability, T/C [2] of 59.2% and a viability, T/C [3] of 61.2%. It also gave a viability, T/C [4] of 63.1%, a viability, T/C [5] of 62.5% and a viability, T/C [6] of 57.9%. For the same molecule, the viability, T/C [7] was 50.9%, the viability, T/C [8] was 43.8% and the viability, T/C [9] was 53.3%. The viability, T/C [10] was 51.4%, the viability, T/C [11] was 50.5% and the viability, T/C [12] was 43.5%. The viability, T/C [13] was 40.5%, the viability, T/C [14] was 39.7% and the viability, T/C [15] was 34%. For the same molecule, the viability, T/C [16] was 41.8%, the viability, T/C [17] was 39.9% and the viability, T/C [18] was 34.1%. For the same molecule, the viability, T/C [19] was 29%, the viability, T/C [20] was 32.3% and the viability, T/C [21] was 29.9%. The viability, T/C [22] was 31.7%, the viability, T/C [23] was 34.5% and the viability, T/C [24] was 29.4%. It also gave a viability, T/C [25] of 23.1%, a viability, T/C [26] of 27.1% and a viability, T/C [27] of 25.5%. For the same molecule, the viability, T/C [28] was 27.5%, the viability, T/C [29] was 29.2% and the viability, T/C [30] was 24.3%. It also gave a viability, T/C [31] of 22.6%, a viability, T/C [32] of 22.1% and a viability, T/C [33] of 23.2%. For the same molecule, the viability, T/C [34] was 22.1%, the viability, T/C [35] was 25.6% and the viability, T/C [36] was 22.6%.
Molecule Nc1ccn(C2OC(CO)C(O)C2(F)F)c(=O)n1 (stereo unspecified) + CCn1c(-c2cccnc2C(C)OC)c2c3cc(ccc31)N1CCOC(CC(NC(=O)C(C(C)C)N(C)C(=O)C3(F)CCN(C(=O)C#CC(C)(C)N(C)C)CC3)C(=O)N3CCCC(N3)C(=O)OCC(C)(C)C2)C1 has an IC50 (second compound 0.000949 µM) of 82.4 nM, an IC50 (second compound 0.003 µM) of 77.2 nM and an IC50 (second compound 0.00949 µM) of 72.3 nM. It also gave an IC50 (second compound 0.03 µM) of 70.4 nM, an IC50 (second compound 0.0949 µM) of 77.2 nM and an IC50 (second compound 0.3 µM) of 44 nM. It also gave a viability, T/C [1] of 107%, a viability, T/C [2] of 91.8% and a viability, T/C [3] of 68.1%. For the same molecule, the viability, T/C [4] was 47%, the viability, T/C [5] was 32.3% and the viability, T/C [6] was 27.9%. For the same molecule, the viability, T/C [7] was 110%, the viability, T/C [8] was 88.6% and the viability, T/C [9] was 69.2%. The viability, T/C [10] was 40.9%, the viability, T/C [11] was 38.6% and the viability, T/C [12] was 29.6%. It also gave a viability, T/C [13] of 97.5%, a viability, T/C [14] of 91.2% and a viability, T/C [15] of 66%. It also gave a viability, T/C [16] of 42.5%, a viability, T/C [17] of 36.1% and a viability, T/C [18] of 26.2%. It also gave a viability, T/C [19] of 90.1%, a viability, T/C [20] of 90.2% and a viability, T/C [21] of 62.7%. For the same molecule, the viability, T/C [22] was 43.3%, the viability, T/C [23] was 33.6% and the viability, T/C [24] was 22.8%. It also gave a viability, T/C [25] of 85.1%, a viability, T/C [26] of 88.4% and a viability, T/C [27] of 71.9%. It also gave a viability, T/C [28] of 43%, a viability, T/C [29] of 31.4% and a viability, T/C [30] of 24.4%. It also gave a viability, T/C [31] of 81.8%, a viability, T/C [32] of 75.4% and a viability, T/C [33] of 52.6%. For the same molecule, the viability, T/C [34] was 37.6%, the viability, T/C [35] was 30.8% and the viability, T/C [36] was 21.2%.
With NC1c2ccccc2OC12CCN(c1cnc3c(N4CCCc5ncccc54)n[nH]c3n1)CC2 (stereo unspecified) + CCn1c(-c2cccnc2C(C)OC)c2c3cc(ccc31)N1CCOC(CC(NC(=O)C(C(C)C)N(C)C(=O)C3(F)CCN(C(=O)C#CC(C)(C)N(C)C)CC3)C(=O)N3CCCC(N3)C(=O)OCC(C)(C)C2)C1 the IC50 (second compound 0.000949 µM) was > 10000 nM, the IC50 (second compound 0.003 µM) was > 10000 nM and the IC50 (second compound 0.00949 µM) was > 10000 nM. The IC50 (second compound 0.03 µM) was > 10000 nM, the IC50 (second compound 0.0949 µM) was > 10000 nM and the IC50 (second compound 0.3 µM) was 8090 nM. For the same molecule, the viability, T/C [3] was 82.5%, the viability, T/C [4] was 77.5% and the viability, T/C [5] was 72.6%. It also gave a viability, T/C [6] of 60.9%, a viability, T/C (second compound 0.000949 µM, first compound 3.16 µM) of 65.7% and a viability, T/C (second compound 0.000949 µM, first compound 10 µM) of 56.9%. It also gave a viability, T/C [9] of 82.6%, a viability, T/C [10] of 76.8% and a viability, T/C [11] of 70%. For the same molecule, the viability, T/C [12] was 65%, the viability, T/C (second compound 0.003 µM, first compound 3.16 µM) was 62.9% and the viability, T/C (second compound 0.003 µM, first compound 10 µM) was 60.5%. The viability, T/C [15] was 76.3%, the viability, T/C [16] was 85.5% and the viability, T/C [17] was 70%. It also gave a viability, T/C [18] of 65%, a viability, T/C (second compound 0.00949 µM, first compound 3.16 µM) of 64.8% and a viability, T/C (second compound 0.00949 µM, first compound 10 µM) of 55.5%. The viability, T/C [21] was 85.4%, the viability, T/C [22] was 76.3% and the viability, T/C [23] was 73.4%. It also gave a viability, T/C [24] of 62.7%, a viability, T/C (second compound 0.03 µM, first compound 3.16 µM) of 58.8% and a viability, T/C (second compound 0.03 µM, first compound 10 µM) of 58.5%. The viability, T/C [27] was 78.8%, the viability, T/C [28] was 75.6% and the viability, T/C [29] was 71.5%. The viability, T/C [30] was 65%, the viability, T/C (second compound 0.0949 µM, first compound 3.16 µM) was 58.5% and the viability, T/C (second compound 0.0949 µM, first compound 10 µM) was 57%. The viability, T/C [33] was 72.8%, the viability, T/C [34] was 68.2% and the viability, T/C [35] was 68.8%. For the same molecule, the viability, T/C [36] was 59.5%, the viability, T/C (second compound 0.3 µM, first compound 3.16 µM) was 54.2% and the viability, T/C (second compound 0.3 µM, first compound 10 µM) was 49.5%.
